Columns and labels:
[1] = Stability against equine kidney gamma-glutamyltranspeptidase mediated breakdown at pH 8.4 after 15 mins; type: ADME, tissue-based; conditions: pH 8.4, 0.25 h
[2] = Stability against equine kidney gamma-glutamyltranspeptidase mediated breakdown at pH 8.4 after 15 hrs; type: ADME; conditions: pH 8.4, 15 h
Glyoxalase I = biological target: T1, Glyoxalase I (Saccharomyces cerevisiae S288c, UniProt P50107); test: Inhibition of yeast glyoxalase1
T1 sequence (P50107 whole entry): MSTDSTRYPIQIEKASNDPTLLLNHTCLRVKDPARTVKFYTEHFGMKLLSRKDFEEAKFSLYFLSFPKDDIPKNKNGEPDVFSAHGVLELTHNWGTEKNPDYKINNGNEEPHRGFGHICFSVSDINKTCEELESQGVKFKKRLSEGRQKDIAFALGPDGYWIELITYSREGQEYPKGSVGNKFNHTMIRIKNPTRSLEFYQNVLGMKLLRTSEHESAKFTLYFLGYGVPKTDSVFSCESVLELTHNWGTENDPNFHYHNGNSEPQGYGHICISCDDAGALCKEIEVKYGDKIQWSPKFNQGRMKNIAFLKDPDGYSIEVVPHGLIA

N[C@@H](CCC(=O)N[C@@H](CSC(=O)N(O)c1ccc(Br)cc1)C(=O)NCC(=O)O)C(=O)O
Activity [1]: Not Active

N[C@@H](CCC(=O)N[C@@H](CSCc1ccc(Br)cc1)C(=O)NCC(=O)O)C(=O)O
Activity [1]: Not Active

N[C@@H](CNC(=O)N[C@@H](CSC(=O)N(O)c1ccc(Br)cc1)C(=O)NCC(=O)O)C(=O)O
Stability [2]: Stable
Ki (Glyoxalase I): 2.19 µM

Reference: ChEMBL document CHEMBL1146153, “A metabolically stable tight-binding transition-state inhibitor of glyoxalase-I” (Bioorg Med Chem Lett, 2006)
